Source: ChEMBL document CHEMBL5365483, “Structure-Based Drug Design of Novel Triaminotriazine Derivatives as Orally Bioavailable IDH2R140Q Inhibitors with High Selectivity and Reduced hERG Inhibitory Activity for the Treatment of Acute Myeloid Leukemia” (J Med Chem, 2023)

Tests used:
in vitro [1] = conditions: mouse, liver microsomes
in vitro [2] = conditions: human, liver microsomes
in vitro [3] = conditions: mouse, liver microsomes; remark: listed apart in the source
in vitro [4] = conditions: human, liver microsomes; remark: listed apart in the source
in vivo [5] = conditions: BALB/c, mouse, po, 25 mg/kg
in vivo [6] = conditions: BALB/c, mouse, po, 25 mg/kg; remark: listed apart in the source
in vivo [7] = conditions: BALB/c, mouse, iv, 5 mg/kg
in vivo [8] = conditions: BALB/c, mouse, iv, 5 mg/kg; remark: listed apart in the source
in vivo [9] = conditions: BALB/c, mouse, iv, 5 mg/kg; remark: listed apart in the source
in vivo [10] = conditions: BALB/c, mouse, iv, 5 mg/kg; remark: listed apart in the source
in vivo [11] = conditions: BALB/c, mouse, iv, 5 mg/kg; remark: listed apart in the source
in vivo [12] = conditions: BALB/c, mouse, po, 25 mg/kg; remark: listed apart in the source
in vivo [13] = conditions: BALB/c, mouse, po, 25 mg/kg; remark: listed apart in the source
in vivo [14] = conditions: BALB/c, mouse, po, 25 mg/kg; remark: listed apart in the source

Compound | CLint scaled at 1 h, 1 µM (in vitro [1]) | CLint scaled at 1 h, 1 µM (in vitro [2]) | half-life at 1 h, 1 µM (in vitro [3]) | half-life at 1 h, 1 µM (in vitro [4]) | half-life at 72 h (in vivo [5]) | bioavailability at 72 h (in vivo [6]) | Cmax at 24 h (in vivo [7]) | clearance at 24 h (in vivo [8]) | half-life at 24 h (in vivo [9]) | MRT at 24 h (in vivo [10]) | AUC(0-inf) at 24 h (in vivo [11]) | AUC(0-inf) at 72 h (in vivo [12]) | Cmax at 72 h (in vivo [13]) | MRT at 72 h (in vivo [14])
CCOc1ccc(NC(C)=O)cc1 [PHENACETIN] | 1590 mL/min/kg | 23.6 mL/min/kg | 0.0567 h | 1.13 h |  |  |  |  |  |  |  |  |  | 
O=C(O)Cc1ccccc1Nc1c(Cl)cccc1Cl [DICLOFENAC] | 226 mL/min/kg | 302 mL/min/kg | 0.402 h | 0.0883 h |  |  |  |  |  |  |  |  |  | 
CC(C)(O)CNc1nc(Nc2ccnc(C(F)(F)F)c2)nc(-c2cccc(C(F)(F)F)n2)n1 [ENASIDENIB] |  |  |  |  | 6.98 h | 125% | 2840 ng/mL | 5.99 mL/min/kg | 2.71 h | 4.9 h | 14000 ng·h/mL | 87600 ng·h/mL | 6390 ng/mL | 7.45 h
